In patent US10577610B2, “EpCAM aptamers and conjugates thereof” (Deakin University, priority 2015, dated 2020):
[invdT] = inverted (3'-3') thymidine; {TYE665} = TYE665 fluorescent dye

Experiments:
[1] = target: T1, native EpCAM protein expressed on the cell surface (HEY cells) (Homo sapiens, UniProt P16422); assay: Flow cytometry binding assay on HEY cells (EpCAM-positive); settings: HEY (EpCAM-positive) cells, flow cytometry, n=3
T1 construct: host or cells: HEY ovarian cancer cells
T1 sequence (P16422 24-314): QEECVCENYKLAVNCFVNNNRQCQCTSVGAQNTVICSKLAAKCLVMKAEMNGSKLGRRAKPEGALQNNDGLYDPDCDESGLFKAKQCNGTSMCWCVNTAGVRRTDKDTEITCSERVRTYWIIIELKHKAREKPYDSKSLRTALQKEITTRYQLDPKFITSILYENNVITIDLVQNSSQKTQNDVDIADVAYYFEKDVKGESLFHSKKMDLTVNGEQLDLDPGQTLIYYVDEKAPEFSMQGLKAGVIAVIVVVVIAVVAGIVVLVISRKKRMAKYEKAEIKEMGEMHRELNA
Description: In order to determine the binding affinity (equilibrium dissociation constant KD) of the aptamers. Binding assays were conducted to measure the binding to native EpCAM protein expressed on the cell surface. The aptamers were incubated with the cells at concentrations ranging from 0 nM to 400 nM. These were subsequently analysed by flow cytometry. Aptamers were thawed from storage (−20° C.) prior to use. These were then diluted via serial dilutions with phosphate buffered saline (PBS) in order to achieve the desired concentrations. PBS was supplemented with a MgCl2 concentration appropriate for the aptamer (1 mM for anti-TfR aptamers; 5 mM for conjugate aptamers). Aptamers were then folded into their 3D structures using a thermocycler (85° C. for 5 minutes, slow cooling to 22° C. over 10 minutes and 37° C. for 15 minutes).
Concurrently, subcultured cells were incubated in blocking buffer (PBS with 10% FCS, 1 mg/mL BSA, 0.1 mg/mL tRNA) for 30 minutes. Following centrifugation, blocking buffer was removed and cells were resuspended in binding buffer (PBS with 10% FCS, 1 mg/mL BSA, 0.1 mg/mL tRNA). Cells (50 μL) were then incubated with the aptamers (50 μL) for 30 minutes at 37° C. at a range of concentrations (0 nM, 20 nM, 40 nM, 60 nM, 80 nM, 100 nM, 200 nM, 400 nM). Following this, cells were washed in 100 μL PBS three times before final resuspension for flow cytometry.
Aptamers were incubated with the chosen cell lines (bEnd.3 cells, mouse cells positive for TfR; HEY cells, human ovarian cancer cell line positive for EpCAM; and MOLT4 human cells negative for both TfR and EpCAM) at a range of concentrations. Aptamer-bound cells were analysed using a FACS Canto II flow cytometer (Becton Dickinson), counting 10,000 events for each sample, in order to determine the binding affinity of the aptamers. […] The value for the auto fluorescent 0 nM concentration was subtracted from the other figures to account for background fluorescence (Li N et al (2009) Journal of Proteome Research 8(5):2438-48). The resultant values were then used to determine the dissociation constant (KD) via the Graph Pad Prism 3 software. […]
The binding affinities of aptamers Bi1, Bi2 and Bi3 were determined semi-quantitatively via flow cytometry, using bEnd.3 cells to assess reactivity with TfR, HEY cells to determine EpCAM specificity and the MOLT4 cell line as a negative control. Three independent binding assays were performed for these aptamer against all three cell lines (bEnd.3, HEY and MOLT4). […]

HT29 and HEY cells = assay: Confocal microscopy internalisation of EpCAM aptamers into EpCAM positive cells; type: cell-based; settings: 200 nM, 60 min
Description: The ability of each DNA EpCAM aptamer to be internalised was established through confocal microscopy. HT29, HEY, K652 and HEK293T were seeded at 8×10^5 cells per well in 8-chamber slide for 24 h in preparation for confocal […]. Cells were incubated with blocking buffer for 60 min, followed by resuspension in binding buffer and containing 200 nM EpCAM aptamer or negative control aptamer and incubated for 60 min at 37° C. Bisbenzimide Hoechst 33342 (3 mg/ml) (Sigma) was added to the cells during the final 10 min of incubation. The aptamer solution was removed and the cells were washed three times for 5 min each in PBS prior to visualisation using a FluoView FV10i laser scanning confocal microscope (Olympus).

[2] = Doxorubicin loading efficiency by fluorescence spectroscopy; settings: mean±SEM
Source text: The anthracycline class of drugs, including DOX, have fluorescence properties that become quenched after intercalation into DNA (Valentini L et al (1985) II Farmaco edizione scientifica 40(6):377-90. The natural fluorescence of doxorubicin and its subsequent quenching after intercalating with the DNA EpCAM aptamers was utilised for the measurement of the extent of doxorubicin conjugation via Fluorescent Spectroscopy. The conjugation process was studied using different aptamer-doxorubicin molar ratios (0, 0.01, 0.04, 0.08, 0.1, 0.2, 0.3, 0.4, 0.5, and 0.6) and analysed with a fluorescence plate reader based on a standard curve of free doxorubicin.
Prior to conjugation, aptamers were prepared for application as previously described. DOX was then combined with aptamer in conjugation buffer containing 0.1 M sodium acetate, 0.05 M NaCl, and 5 mM MgCl2 and incubated at 37° C. in an Orbital mixer/incubator (RATEK) for 1 hour with agitation (75 r.p.m). The conjugate was then passed through a Sephadex®G-10 medium column (Sigma-Aldrich) to separate the aptamer: doxorubicin conjugate from free DOX. As DOX has a natural fluorescence which is subsequently quenched following intercalation into double stranded DNA, this characteristic of DOX was exploited to determine the amount of DOX that was intercalated into the double stranded stem region of the conjugate aptamers. After column separation, DOX was extracted from the conjugate yield by adding 150 uL of acetonitrile. This solution was then centrifuged for 5 min at 21,000 g. Eighty microliters of supernatant was removed and fluorescent intensity was quantified with a fluorescent plate reader. A calibration standard curve was prepared with known concentrations of DOX under the same condition
Data was analysed using Graph Pad Prism 3 and data was reported as mean and standard error of the mean (mean±SEM) unless otherwise stated.

[3] = target: T2, native EpCAM protein expressed on the cell surface (HT29 cells) (Homo sapiens, UniProt P16422); assay: Flow cytometry binding assay on HT29 cells (EpCAM-positive); settings: n=3
T2 construct: endogenous in cells; host or cells: HT29 cells
T2 sequence (P16422 24-314): T1 sequence (P16422 24-314)
Description: (§1) The equilibrium dissociation constant (KD) of each DNA EpCAM aptamer (Ep7, Ep8 and Ep9) was determined by measuring its binding to native EpCAM protein expressed on the cell surface using flow cytometry. HT29, HEY and HEK293T (5×10^5) cells were first incubated with blocking buffer (PBS containing 10% FCS, 1 mg/mL tRNA, 1 mg/mL BSA) for 30 minutes followed by a single wash with binding buffer (PBS containing 10% FCS, 1 mg/mL tRNA, 1 mg/mL BSA) prior to incubation with serial dilutions of concentrations of the respective TYE665-labelled aptamers (0 to 200 nM) in binding buffer for 30 min at 37° C. The cells were washed three times with PBS and resuspended in PBS prior to flow cytometric analysis. The fluorescent intensity was determined using a FACS Canto II flow cytometer (Becton Dickinson), counting 10,000 events for each sample. The mean fluorescent intensity of each concentration was […] the auto fluorescent control and the KD for each aptamer was calculated from the normalised values for fluorescent intensity.

HEK293T and K562 = assay: Flow cytometry binding to EpCAM negative cell lines; settings: HEK293T and K562, 0 and 100 nM
Description: as §1

mouse TfR = target: T3, mouse TfR (Mus musculus, UniProt Q62351); assay: Flow cytometry binding assay on bEnd.3 cells (TfR-positive); settings: bEnd.3 (TfR-positive) cells, n=3
T3 construct: bEnd.3 cells, mouse cells positive for TfR; host or cells: bEnd.3 mouse cerebral endothelial cells
T3 sequence (Q62351 whole entry): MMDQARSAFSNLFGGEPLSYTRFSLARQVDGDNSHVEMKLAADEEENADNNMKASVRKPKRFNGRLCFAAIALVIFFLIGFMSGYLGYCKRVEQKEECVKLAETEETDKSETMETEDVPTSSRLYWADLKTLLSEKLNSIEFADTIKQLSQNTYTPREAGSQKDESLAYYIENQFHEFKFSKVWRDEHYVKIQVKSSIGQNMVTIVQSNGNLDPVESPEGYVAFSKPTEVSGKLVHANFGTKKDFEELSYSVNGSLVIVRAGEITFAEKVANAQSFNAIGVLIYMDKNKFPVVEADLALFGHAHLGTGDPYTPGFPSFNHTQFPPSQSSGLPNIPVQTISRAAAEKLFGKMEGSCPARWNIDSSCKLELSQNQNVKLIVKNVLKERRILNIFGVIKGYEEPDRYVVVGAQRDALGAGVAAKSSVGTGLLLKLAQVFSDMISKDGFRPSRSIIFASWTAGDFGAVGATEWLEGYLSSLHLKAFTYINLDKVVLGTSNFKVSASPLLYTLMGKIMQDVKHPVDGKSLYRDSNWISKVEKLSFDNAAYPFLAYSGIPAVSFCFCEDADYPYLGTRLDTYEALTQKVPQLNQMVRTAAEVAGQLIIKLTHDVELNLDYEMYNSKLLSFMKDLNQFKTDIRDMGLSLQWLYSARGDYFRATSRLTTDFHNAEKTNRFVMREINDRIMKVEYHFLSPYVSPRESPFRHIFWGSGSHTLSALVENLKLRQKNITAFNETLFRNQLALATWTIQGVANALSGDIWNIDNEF
Description: In order to determine the binding affinity (equilibrium dissociation constant KD) of the aptamers. Binding assays were conducted to measure the binding to native EpCAM protein expressed on the cell surface. The aptamers were incubated with the cells at concentrations ranging from 0 nM to 400 nM. These were subsequently analysed by flow cytometry. Aptamers were thawed from storage (-20° C.) prior to use. These were then diluted via serial dilutions with phosphate buffered saline (PBS) in order to achieve the desired concentrations. PBS was supplemented with a MgCl2 concentration appropriate for the aptamer (1 mM for anti-TfR aptamers; 5 mM for conjugate aptamers). […] Concurrently, subcultured cells were incubated in blocking buffer (PBS with 10% FCS, 1 mg/mL BSA, 0.1 mg/mL tRNA) for 30 minutes. Following centrifugation, blocking buffer was removed and cells were resuspended in binding buffer (PBS with 10% FCS, 1 mg/mL BSA, 0.1 mg/mL tRNA). Cells (50 μL) were then incubated with the aptamers (50 μL) for 30 minutes at 37° C. at a range of concentrations (0 nM, 20 nM, 40 nM, 60 nM, 80 nM, 100 nM, 200 nM, 400 nM). Following this, cells were washed in 100 μL PBS three times before final resuspension for flow cytometry. Aptamers were incubated with the chosen cell lines (bEnd.3 cells, mouse cells positive for TfR; HEY cells, human ovarian cancer cell line positive for EpCAM; and MOLT4 human cells negative for both TfR and EpCAM) at a range of concentrations. Aptamer-bound cells were analysed using a FACS Canto II flow cytometer (Becton Dickinson), counting 10,000 events for each sample, in order to determine the binding affinity of the aptamers. […] The value for the auto fluorescent 0 nM concentration was subtracted from the other figures to account for background fluorescence (Li N et al (2009) Journal of Proteome Research 8(5):2438-48). […] The binding affinities of aptamers TfR1, TfR2, […] determined semi-quantitatively via flow cytometry, using bEnd.3 mouse cerebral endothelial cells as a Tf R-positive cell line and MOLT4 acute lymphoblastic leukaemia cells-which express the human TfR, but not the mouse TfR (Sutherland R et al (1981) PNAS 78(7):4515-9)-as a negative control. Three independent binding assays were performed for each aptamer against each cell line. […] Three independent binding assays were performed for these aptamer against all three cell lines (bEnd.3, HEY and MOLT4).

Ex Ep7: extended Ep7 aptamer with the same binding loop as Ep7, SEQ ID NO:13 (CGCGCGCCGCAGGTTGCGTGCGGCGCGCG; DNA, 5' {TYE665}, 3' [invdT], backbone not given here)
Kd [1]: 0.0637 ± 0.0144 µM | Internalisation by EpCAM positive cells (HT29 and HEY cells): internalised | Molar ratio aptamer:dox [2]: 1.17 ± 0.02

Ep7: truncated DNA EpCAM aptamer derived from SYL3C, SEQ ID NO:9 (ACAGAGGTTGCGTCTG; DNA, [invdT] at 3' end, 5' {TYE665}, backbone not given here)
Kd [1]: 0.248 ± 0.0822 µM | Kd [3]: 0.011 ± 0.00279 µM | Binding to EpCAM negative cell lines (HEK293T and K562): did not bind | Internalisation by EpCAM positive cells (HT29 and HEY cells): internalised | Molar ratio aptamer:dox [2]: 0.42 ± 0.11

5′ CACTACAGAGGTTGCGTCTGTCCCACGTTGTCATGGGGGGTTGGCCTG 3′ (CACTACAGAGGTTGCGTCTGTCCCACGTTGTCATGGGGGGTTGGCCTG; listed as DNA, chemistry not fully specified) [Full length EpCAM aptamer, reference compound]
Kd [1]: 0.495 ± 0.147 µM | Kd [3]: 0.009 ± 0.00168 µM | Molar ratio aptamer:dox [2]: 0.53 ± 0.13

Ep9: truncated DNA EpCAM aptamer derived from SYL3C, SEQ ID NO:12 (GGGGTTGGCCCC; DNA, 5' {TYE665}, 3' [invdT], backbone not given here)
Kd [1]: 0.266 ± 0.121 µM | Kd [3]: 0.0318 ± 0.00765 µM | Binding to EpCAM negative cell lines (HEK293T and K562): did not bind | Internalisation by EpCAM positive cells (HT29 and HEY cells): internalised | Molar ratio aptamer:dox [2]: 0.35 ± 0.06

Scr Ex Ep7: scrambled extended Ep7 aptamer with randomly selected base pairs in the binding loop, SEQ ID NO:14 (CGCGCGCCGCATTCCTTTTGCGGCGCGCG; DNA, 5' {TYE665}, 3' [invdT], backbone not given here)
Kd [1]: 0.521 ± 0.272 µM | Internalisation by EpCAM positive cells (HT29 and HEY cells): not internalised | Molar ratio aptamer:dox [2]: 1.01 ± 0.01

TfR2: version of TfR1 with scrambled binding loop sequence, SEQ ID NO:5 (DNA GCGTGGGCCCACGC; DNA, backbone not given here; further chemistry not fully specified)
Kd (mouse TfR): 0.525 ± 0.161 µM

Ep8: truncated DNA EpCAM aptamer derived from SYL3C, SEQ ID NO:11 (CCCACGTTGTCATGGG; DNA, 5' {TYE665}, 3' [invdT], backbone not given here)
Kd [1]: 0.696 ± 0.486 µM | Kd [3]: 0.00619 ± 0.00224 µM | Binding to EpCAM negative cell lines (HEK293T and K562): did not bind | Internalisation by EpCAM positive cells (HT29 and HEY cells): internalised | Molar ratio aptamer:dox [2]: 0.38 ± 0.06

TfR1: truncated fourteen nucleotide DNA aptamer against mouse TfR, SEQ ID NO:4 (GCGTGTGCACACGC; DNA, backbone not given here; further chemistry not fully specified)
Kd (mouse TfR): 5.76 ± 7.12 µM
